Measured values: BindingDB's records for doi:10.1021/cb200305u (Harvard Medical School, 2012)

Key:
Experiment in all cases: In Vitro Kinase Assay
Aurora kinase C = target: T1, Aurora kinase C (Homo sapiens, UniProt Q9UQB9)
T1 sequence (Q9UQB9 whole entry): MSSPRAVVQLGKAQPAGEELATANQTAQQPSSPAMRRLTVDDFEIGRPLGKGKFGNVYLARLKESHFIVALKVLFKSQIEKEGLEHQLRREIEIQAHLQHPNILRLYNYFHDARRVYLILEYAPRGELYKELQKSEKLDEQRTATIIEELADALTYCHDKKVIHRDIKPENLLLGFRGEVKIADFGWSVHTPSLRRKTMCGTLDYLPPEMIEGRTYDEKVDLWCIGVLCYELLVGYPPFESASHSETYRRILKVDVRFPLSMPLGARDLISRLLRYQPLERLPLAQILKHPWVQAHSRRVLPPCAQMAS
Description: (§1) In vitro kinase assay of Aurora A, B, and C using Z-LYTE technology (Invitrogen) and ATP at Km apparent for each kinase.

Aurora kinase B = Aurora kinase B (Homo sapiens, UniProt Q96GD4)
Aurora kinase B, sequence (Q96GD4 whole entry): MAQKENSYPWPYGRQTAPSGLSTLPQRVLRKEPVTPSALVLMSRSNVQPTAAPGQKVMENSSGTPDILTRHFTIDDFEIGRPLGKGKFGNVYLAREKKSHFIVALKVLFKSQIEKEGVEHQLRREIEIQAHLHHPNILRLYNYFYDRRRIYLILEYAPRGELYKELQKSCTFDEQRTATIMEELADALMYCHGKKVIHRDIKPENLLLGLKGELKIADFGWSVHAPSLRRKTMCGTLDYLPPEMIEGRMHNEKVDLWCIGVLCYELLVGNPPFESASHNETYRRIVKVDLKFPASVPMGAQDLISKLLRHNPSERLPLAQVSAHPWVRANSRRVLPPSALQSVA
Description: as §1

Aurora kinase A = target: T2, Aurora kinase A (Homo sapiens, UniProt O14965)
T2 sequence (O14965 whole entry): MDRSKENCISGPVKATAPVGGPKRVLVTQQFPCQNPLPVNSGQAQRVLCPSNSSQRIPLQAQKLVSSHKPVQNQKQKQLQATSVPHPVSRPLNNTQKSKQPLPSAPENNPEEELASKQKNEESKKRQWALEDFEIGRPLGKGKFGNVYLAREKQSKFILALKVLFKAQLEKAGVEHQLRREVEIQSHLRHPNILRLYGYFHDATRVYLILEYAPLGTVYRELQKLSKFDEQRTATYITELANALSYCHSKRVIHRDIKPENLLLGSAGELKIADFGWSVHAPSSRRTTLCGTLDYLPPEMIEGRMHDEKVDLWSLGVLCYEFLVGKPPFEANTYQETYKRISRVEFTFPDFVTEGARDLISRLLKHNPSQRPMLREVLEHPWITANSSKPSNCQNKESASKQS
Description: as §1

| IC50 (Aurora kinase C) | IC50 (Aurora kinase B) | IC50 (Aurora kinase A) | SMILES |
| --- | --- | --- | --- |
| 25.3 nM | – | – | CCN(CCCOc1ccc2c(Nc3cc(CC(=O)Nc4cccc(F)c4)n[nH]3)ncnc2c1)CCOP(=O)(O)O |
| – | 8.4 nM | 3.4 nM | CN1C(=O)c2ccccc2N(C)c2nc(Nc3ccc(S(N)(=O)=O)cc3)ncc21 |
| 24.6 nM | – | 5.6 nM | CN1C(=O)c2ccccc2N(C)c2nc(Nc3ccc(N4CCC(O)CC4)cc3)ncc21 [Benzo[e]pyrimido[5,4-b][1,4]diazepin-6(11H)-one, 1] |
| 40.5 nM | 25.9 nM | 7.2 nM | CN1CCN(c2ccc(Nc3ncc4c(n3)N(C)c3ccccc3C(=O)N4C)cc2)CC1 [Benzo[e]pyrimido[5,4-b][1,4]diazepin-6(11H)-one, 3] |
| – | 28.6 nM | 8.8 nM | CN1C(=O)c2ccccc2N(C)c2nc(Nc3ccc(S(=O)(=O)N4CCC(O)CC4)cc3)ncc21 [Benzo[e]pyrimido[5,4-b][1,4]diazepin-6(11H)-one, 4] |
| – | 45.1 nM | 16.8 nM | CC1CCN(S(=O)(=O)c2ccc(Nc3ncc4c(n3)N(C)c3ccccc3C(=O)N4C)cc2)CC1 [Benzo[e]pyrimido[5,4-b][1,4]diazepin-6(11H)-one, 5] |
| – | 15.2 nM | 5.9 nM | CCN1CCN(C(=O)c2ccc(Nc3ncc4c(n3)N(C)c3ccccc3C(=O)N4C)cc2)CC1 [Benzo[e]pyrimido[5,4-b][1,4]diazepin-6(11H)-one, 7] |
| – | 39.3 nM | 18.4 nM | CN1C(=O)c2ccccc2N(C)c2nc(Nc3ccc(OCc4ccccn4)cc3)ncc21 [Benzo[e]pyrimido[5,4-b][1,4]diazepin-6(11H)-one, 9] |
| – | 512 nM | 323 nM | CN1C(=O)c2ccccc2N(C)c2nc(Nc3ccc(OCc4cccc(F)c4)cc3)ncc21 [Benzo[e]pyrimido[5,4-b][1,4]diazepin-6(11H)-one, 10] |
| – | 352 nM | 83.9 nM | CN1C(=O)c2ccccc2N(C)c2nc(Nc3ccc(OCc4cccc(Cl)c4)cc3)ncc21 [Benzo[e]pyrimido[5,4-b][1,4]diazepin-6(11H)-one, 11] |
| – | 84.8 nM | 9 nM | CN1CCN(C(=O)c2ccc(Nc3ncc4c(n3)N(C)c3ccccc3C(=O)N4C)cc2C(F)(F)F)CC1 [Benzo[e]pyrimido[5,4-b][1,4]diazepin-6(11H)-one, 12] |
| – | 774 nM | 86.8 nM | CN1CCN(c2ccc(Nc3ncc4c(n3)N(C)c3ccccc3C(=O)N4C)cc2C(F)(F)F)CC1 [Benzo[e]pyrimido[5,4-b][1,4]diazepin-6(11H)-one, 13] |
| – | 417 nM | 53.2 nM | CN1C(=O)c2ccccc2N(C)c2nc(Nc3ccc(OCc4ccccn4)c(Cl)c3)ncc21 [Benzo[e]pyrimido[5,4-b][1,4]diazepin-6(11H)-one, 14] |
| – | 36.7 nM | 14.9 nM | CN1CCN(C(=O)c2cccc(Nc3ncc4c(n3)N(C)c3ccccc3C(=O)N4C)c2)CC1 [Benzo[e]pyrimido[5,4-b][1,4]diazepin-6(11H)-one, 15] |
| – | 19.8 nM | 10.7 nM | CN1CCN(Cc2cccc(Nc3ncc4c(n3)N(C)c3ccccc3C(=O)N4C)c2)CC1 [Benzo[e]pyrimido[5,4-b][1,4]diazepin-6(11H)-one, 16] |
| – | 55.8 nM | 11.9 nM | CN1CCN(c2cccc(Nc3ncc4c(n3)N(C)c3ccccc3C(=O)N4C)c2)CC1 [Benzo[e]pyrimido[5,4-b][1,4]diazepin-6(11H)-one, 17] |
| – | 216 nM | 98.5 nM | CN1c2ccccc2C(=O)Nc2cnc(Nc3ccc(N4CCC(O)CC4)cc3)nc21 [Benzo[e]pyrimido[5,4-b][1,4]diazepin-6(11H)-one, 18] |
| – | 43.7 nM | 5.1 nM | CN1C(=O)c2ccccc2N(C)c2nc(Nc3ccc(C(=O)N4CCC(O)CC4)c(C(F)(F)F)c3)ncc21 [Benzo[e]pyrimido[5,4-b][1,4]diazepin-6(11H)-one, 19] |
| – | 14.3 nM | 3.2 nM | CN1C(=O)c2ccccc2N(C)c2nc(Nc3ccc(C(=O)N4CCC(O)CC4)c(Cl)c3)ncc21 [Benzo[e]pyrimido[5,4-b][1,4]diazepin-6(11H)-one, 20] |
| – | 14.5 nM | 3.7 nM | Cc1cc(Nc2ncc3c(n2)N(C)c2ccccc2C(=O)N3C)ccc1C(=O)N1CCN(C)CC1 [Benzo[e]pyrimido[5,4-b][1,4]diazepin-6(11H)-one, 21] |
| – | 24.2 nM | 2.6 nM | COc1cc(Nc2ncc3c(n2)N(C)c2ccccc2C(=O)N3C)ccc1C(=O)N1CCN(O)CC1 [Benzo[e]pyrimido[5,4-b][1,4]diazepin-6(11H)-one, 22] |
| – | 132 nM | 11.6 nM | CCN1CCN(Cc2ccc(Nc3ncc4c(n3)N(C)c3c(C)cccc3C(=O)N4C)cc2C(F)(F)F)CC1 [Benzo[e]pyrimido[5,4-b][1,4]diazepin-6(11H)-one, 28] |
| 595 nM | 487 nM | 13.4 nM | CCN1CCN(Cc2ccc(Nc3ncc4c(n3)N(C)c3c(F)cccc3C(=O)N4C)cc2C(F)(F)F)CC1 [Benzo[e]pyrimido[5,4-b][1,4]diazepin-6(11H)-one, 29] |
| – | 230 nM | 146 nM | CCN1CCN(Cc2ccc(Nc3ncc4c(n3)N(C)c3cc(C)ccc3C(=O)N4C)cc2C(F)(F)F)CC1 [Benzo[e]pyrimido[5,4-b][1,4]diazepin-6(11H)-one, 30] |
| – | 586 nM | 298 nM | CCN1CCN(Cc2ccc(Nc3ncc4c(n3)N(C)c3cc(F)ccc3C(=O)N4C)cc2C(F)(F)F)CC1 [Benzo[e]pyrimido[5,4-b][1,4]diazepin-6(11H)-one, 31] |

| SMILES | IC50 (Aurora kinase C) | IC50 (Aurora kinase B) | IC50 (Aurora kinase A) |
| --- | --- | --- | --- |
| CCN1CCN(C(=O)Cc2ccc(Nc3ncc(F)c(Nc4ccc(C(=O)Nc5ccccc5Cl)cc4)n3)cc2)CC1 [Aurora Inhibitor, 35] | 432 nM | 1380 nM | 3.2 nM |
| CCN1CCN(C(=O)Cc2ccc(Nc3ncc4c(n3)N(C)c3ccccc3C(=O)N4C)cc2)CC1 [Benzo[e]pyrimido[5,4-b][1,4]diazepin-6(11H)-one, 8] | – | 18.7 nM | 6.1 nM |
